Laboratory results published in publication PMC5913603, “Structure–activity relationships of strigolactones via a novel, quantitative in planta bioassay” (Journal of Experimental Botany, 2018).
Entries after “also recorded” stand apart in the source; their conditions may differ. Read-outs that look alike come from different tables or passages of the source.

Experiments:
[1] = Chemical stability in aqueous solutions, degradation followed by HPLC; type: physicochemical
Description: The compounds were first dissolved in methanol (30%) or acetonitrile (50%) and then diluted to the final concentrations with water. The time-course of degradation was monitored by HPLC using an Agilent Technologies HPLC chromatograph 1200 Series equipped with a photo-diode array (PDA) detector, a binary-gradient high-pressure pump, and an automatic sampler. The column used was a LiChroCART® 125-4 LiChrospher® 100 RP-18 (5 μm, Merck Millipore) maintained at 25 °C. The solvents were (A) water + 0.1% formic acid and (B) acetonitrile, and the flow rate was 0.8 ml min^–1. The initial mobile phase, 95% A / 5% B, was held for 3 min and then ramped linearly to 100% B at 23 min and held for 5 min before resetting to the original conditions. The sample injection volume was 10 μl. PDA detection was by absorbance in the 200–600-nm wavelength range. Peak detection was at the optimum wavelength (254 nm) and peak areas were used for quantification. Initial and subsequent measurements of peak area attributable to the tested compound were used to fit exponential half-life curves and to calculate first-order rate constants. Stability data allowed for calculation of the time in hours for half of the tested compound to be hydrolysed (t1/2).
Natural and synthetic SLs are rather sensitive to hydrolysis at pH 7 and are readily decomposed through the cleavage of the D-ring at pH 9.38 ([Vurro et al., 2016]). Therefore, differences in activity among SL analogues may be attributed to their instability in the aqueous medium. In order to address this point, the stability in aqueous solutions of the newly synthesized SL-D-lactams was tested, and compared to the (+)-GR24 standard ([Kannan and Zwanenburg, 2014]; [Halouzka et al., 2018]). Two different conditions were considered, a 30% solution of MeOH in water and a 1:1 solution of acetonitrile in water. As expected, stability in MeOH was highly compromised for all compounds, but to a greater extent for analogues showing both the Michael acceptor function (enol ether bridge) and an unprotected N in the D-lactam ring, as for rac-3, rac-4, rac-5, and rac-7 (Table 1): after a few hours 50% of the compounds were degraded. This was not surprising from a chemical point of view, as the functional group in SL-D-lactams is an aminal, which is more prone to hydrolysis than the acetal of the natural SL skeleton. […] For rac-5, the NH compound in the EGO10 family, the half-life dropped to 2 h.

[2] = target: T1, AtD14 fused to firefly luciferase (D14::LUC) (Arabidopsis thaliana, UniProt Q9SQR3); assay: Luminometer-based competition assay between rac-9 and (+)-GR24; type: in vivo; conditions: rac-9 constant at 10 μM, (+)-GR24 0.01–100 μM
T1 construct: a pDONOR207 carrying the D14 promoter fused to the D14 CDS; expressed in transfected cells
T1 sequence (Q9SQR3 1-267): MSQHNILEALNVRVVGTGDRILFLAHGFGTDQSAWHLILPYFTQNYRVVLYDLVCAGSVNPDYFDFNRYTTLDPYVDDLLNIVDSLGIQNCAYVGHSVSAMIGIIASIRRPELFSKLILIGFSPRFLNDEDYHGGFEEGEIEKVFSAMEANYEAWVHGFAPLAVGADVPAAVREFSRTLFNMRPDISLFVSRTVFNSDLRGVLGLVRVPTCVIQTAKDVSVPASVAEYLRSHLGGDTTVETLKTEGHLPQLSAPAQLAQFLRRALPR
Description: The efficacy values in these samples in terms of luminescence quenching were compared with those of samples receiving (+)-GR24 alone (positive control). […] Luciferase competition test between rac-9 and (+)-GR24. (A) Efficacy values for (+)-GR24 across a range of concentrations, normalized to the value at 1 μM, which was set to 100%. (B) Efficacy values for (+)-GR24 across the same range of concentrations as in (A), but in the presence of rac-9 at 10 μM. Data are means (±SD) of n=5 replicates, where each replicate consisted of at least three pooled individual seedlings and readings.

[3] = aqueous acetonitrile solution in HPLC vials, pH 6.7, 1:1 acetonitrile:water, 21 °C, pH 6.7, extrapolated from plots of peak area versus time, read-out: Half-life (t1/2, h) ACN:Water, 1:1 (converted)
[4] = aqueous methanol solution in HPLC vials, pH 6.7, 30% MeOH in water, 21 °C, pH 6.7, extrapolated from plots of peak area versus time, read-out: Half-life (t1/2, h) 30% MeOH (converted)
[5] = aqueous solutions in HPLC vials, summary statement in the discussion, read-out: Half-life time (t1/2), solvent not specified / depending on the solvent

Row | half-life at 200 μg ml^–1 [1, 3] | half-life at 200 μg ml^–1 [1, 4] | half-life at 200 μg ml^–1 [1, 5] | Compound | Antagonism of (+)-GR24 [2]
1 | 3.8 h | ~3 h | < 4 h | CC1=C[C@H](O/C=C2/C(=O)O[C@@H]3c4ccccc4C[C@H]23)NC1=O (racemic) [rac-3] | –
2 | 2900 h | 1100 h | 1000 to 3000 h | CC1=CC(C2Cc3c(n(C)c4ccccc34)C2=O)NC1=O (racemic) [rac-9] | no antagonistic behaviour; also recorded: did not possess antagonistic activity
3 | 4.4 h | ~3 h | – | CC1=C[C@H](O/C=C2/C(=O)O[C@H]3c4ccccc4C[C@@H]23)NC1=O (racemic) [rac-4] | –
